Data reported in patent USRE45340E1, “Lentil plants having increased resistance to imidazolinone herbicides” (University of Saskatchewan, priority 2001, dated 2015).

Columns and labels:
[1] = system: AHAS; assay: Inhibition of AHAS activity in wild type CDC Richlea lentil by imidazolinone herbicides; assay type: biochemical, lentil (Lens culinaris); settings: wild type CDC Richlea lentil variety; increasing herbicide concentrations (FIG. 4, FIG. 5)
Description: (§1) FIG. 4 is a graph showing the inhibition of AHAS activity in RH44 and CDC Richlea lentil plants by increasing concentrations of imazapic.
(§2) FIG. 5 is a graph showing the inhibition of AHAS activity in RH44 and CDC Richlea lentil plants by increasing concentrations of imazethapyr.
(§3) The AHAS activity in the wild type CDC Richlea lentil variety was inhibited by imazapic (CADRE®)) (FIG. 4) and imazethapyr (PURSUIT®) (FIG. 5) representative of all imidazolinone herbicides.

[2] = system: AHAS; assay: Inhibition of AHAS activity in RH44 lentil by imidazolinone herbicides; assay type: biochemical, lentil (Lens culinaris); settings: RH44 lentil variety, compared with wild type CDC Richlea (FIG. 4, FIG. 5)
Description: as §1, §2, §3
It is therefore likely that the gene primarily responsible for AHAS activity in the RH44 lentil has undergone a point mutation similar to that observed in corn, wheat and canola. This has made the isozyme coded for by this sequence resistant to imidazolinone inhibition. The wild type isozyme has no such mutation and therefore is susceptible to imidazolinone herbicide. Such a scenario would explain why AHAS activity drops 30 to 40% with the addition of maximum concentrations of imidazolinone herbicides.

[3] = system: AHAS; assay: Negative feedback inhibition assay of AHAS activity; assay type: biochemical, RH44 lentil and CDC Richlea lentil varieties; settings: leucine and valine addition (FIG. 3)
Description: FIG. 3 is a graph showing the inhibition of AHAS activity in RH44 and CDC Richlea lentil plants by a negative feedback inhibition assay.
The responses of the RH44 lentil variety and the CDC Richlea variety were identical in a negative feedback inhibition assay. As described earlier, AHAS is an enzyme active in the biosynthesis of leucine and valine. Under conditions of excess leucine and/or valine, the activity of AHAS is diminished. The ability of leucine and valine addition to inhibit AHAS activity was the same in the RH44 lentil and CDC Richlea lentil varieties, indicating very similar levels of expression and a lack of any discernible difference in AHAS function (FIG. 3).

[4] = system: transgenic rice; settings: cited from earlier work

SMILES | inhibition of AHAS activity [1] | inhibition of AHAS activity [2] | ability to inhibit AHAS activity, RH44 versus CDC Richlea [3] | further results
Cc1cnc(C2=NC(=O)C(C)(C(C)C)N2)c(C(=O)O)c1 (centres unmarked) [imazapic] | inhibited | not to the same extent as for the wild type lentil CDC Richlea | – | –
CC(C)C[C@H](N)C(=O)O [leucine] | – | – | the same | –
CCc1cnc(C2=NC(C)(C(C)C)C(=O)N2)c(C(=O)O)c1 (centres unmarked) [imazethapyr] | inhibited | not to the same extent as for the wild type lentil CDC Richlea | – | –
COc1nc(C)nc(NC(=O)NS(=O)(=O)c2ccccc2Cl)n1 [chlorsulfuron] | – | – | – | differences in in vitro resistance ([4]; Arabidopsis ALS promoter replaced with the CaMV35S promoter): 40 fold; increase in in vitro resistance ([4]; transgenic rice containing a 35S/ALS transgene): 200 fold
CC(C)[C@H](N)C(=O)O [valine] | – | – | the same | –
